Data reported in US9963696B2, “Method for screening mutant microorganism overproducing target metabolite using synthetic suicide genetic circuit” (Korea University Research and Business Foundation, priority 2014, dated 2018).

Key:
FMN ribozyme = test: growth of yeast carrying the FMN suicide riboswitch with added or intracellularly produced FMN; assay type: cell-based, Saccharomyces cerevisiae
Text: Using the same method as described in Example 1-1, a FMN ribozyme (Proc. Natl. Acad. Sci. USA Vol. 96, pp. 3584-3589, March 1999, “Engineering precision RNA molecular switches”)
Biochemistry was inserted into the 3′ UTR of the FCY1 gene (NC_001148.4). In order to examine whether the suicide riboswitch operates properly, an experiment for examining whether the growth rate of cells having the suicide riboswitch introduced therein changes depending on the concentration of FMN in the cells was performed.
Specifically, FMN was externally added to the culture medium.
In addition, the FMN1 gene was cloned into a p413GPD plasmid, which was then transformed into a strain having the FMN suicide riboswitch introduced therein so that FMN was produced in the cells. Also, the cells were treated with fluorocytosine. […] In addition, it could be seen that the absorbance at 660 nm was high due to the production of FMN (FIG. 6c).

glmS ribozyme = test: growth of yeast carrying the glmS suicide riboswitch with externally added GlcN in the presence of fluorocytosine; assay type: cell-based, Saccharomyces cerevisiae
Text: The gene fragment to be inserted was transformed into Saccharomyces cerevisiae BY4742. In order to examine whether the suicide riboswitch was inserted into the gene of the yeast, a colony selected on an SD-URA medium (2% glucose, 0.67% yeast nitrogen base without amino acids, 0.77 g/L CSM-URA dropout mixture) plate was selected. As a result, it could be seen that the glmS ribozyme was inserted into the 3′UTR (untranslated region) of FCY1 locus in the BY4742 strain.
In addition, in order to examine whether the suicide riboswitch operates properly, whether the growth rate of cells having the suicide riboswitch introduced therein changes depending on the concentration of GlcN6P in the cells was examined. In the presence of fluorocytosine, glucosamine (GlcN) was externally added to the culture medium so that it was converted to GlcN6P by intracellular hexokinase.
A BY4742 FGU strain and other strains, which have a suicide riboswitch introduced therein, were cultured in minimal media. For culture of BY4742 FGU, SD-URA medium supplemented with 5 mg/L of fluorocytosine was used. At 2 days after seeding, absorbance was used. To screen the GFA1 mutant library, medium supplemented with 10 mg/L of fluorocytosine was used, and to screen the HAD phosphatase library, medium supplemented with 20 mg/L of fluorocytosine was used (FIG. 2c).

[1] = FMN produced in the cells from FMN1 on p413GPD plasmid, treated with fluorocytosine

Row | Compound | absorbance (FMN ribozyme; FMN externally added to culture medium, increasing concentration) | absorbance at 660 nm (FMN ribozyme; [1]) | growth rate of the cells (FMN ribozyme; [1]) | growth rate of cells having the suicide riboswitch (glmS ribozyme; GlcN externally added to culture medium, in the presence of fluorocytosine, increasing GlcN6P concentration) | absorbance at 660 nm (glmS ribozyme; various concentrations of added GlcN)
1 | Cc1cc2nc3c(=O)[nH]c(=O)nc-3n(C[C@H](O)[C@H](O)[C@H](O)COP(=O)(O)O)c2cc1C [FMN, flavin mononucleotide] | the absorbance also increased | high | the growth rate of the cells was high |  | 
2 | N[C@H]1C(O)O[C@H](CO)[C@@H](O)[C@@H]1O (some centres unmarked) [GlcN, glucosamine] |  |  |  | the growth rate of the cells increased | changed depending on the concentration of GlcN
